Measured values published in patent publication US9969977B2, “Cell populations which co-express CD49c and CD90” (GARNET BIOTHERAPEUTICS, priority 2002, dated 2018).

Test system: cells which co-expressed CD49c and CD90
Experiment: qPCR of Sox-2 and Musashi transcripts with and without nifedipine treatment
Type: cell-based, human
Conditions: 5 μM nifedipine
Protocol: The expression of transcripts for Sox-2 and Musashi were determined using quantitative polymerase chain reaction (qPCR). Briefly, Master Cell Bank of CFUs were derived from a bone marrow aspirate and stored as frozen aliquots using the method of Example 1. An aliquot was thawed and the cells were seeded in 96 well plates at 2000 cells/well in complete media and incubated at 37° C. in an atmosphere consisting of 5% carbon dioxide, 5% oxygen and 90% nitrogen for 3 days. On the third day of culture, cells were treated with 5 μM nifedipine (an L-type calcium channel blocker). After 24 hours of treatment, RNA was isolated using the QIAGEN®RNeasy reagents and the Qiagen Biorobot 3000. An aliquot of the eluted RNA was used to synthesize cDNA. Specifically, RNA was mixed with Promega MMLV, dNTPS, decamers and RNasin and incubated at 37° C. for 1 hour, followed by heat inactivation.
For quantitative PCR, cDNA samples were combined with Applied Biosystems SYBR Green PCR Core reagents and amplicon specific primers, as described below, in a 384 well format. The 384 well plate was then transferred to the Applied Biosystems ABI Prism 7900 for qPCR analysis. The qPCR program entailed a 2 minute cycle at 50 degrees, followed by a 10 minute cycle at 95 degrees to activate the polymerase. This was then followed by 40 amplification cycles consisting of 15 seconds of melting at 95 degrees and one minute of extension/annealing at 60 degrees. Cycle threshold values were converted into relative transcript number using a standard curve then normalized using the corresponding 18s. Data are expressed as a ratio of transcript per 10^6 18s transcripts.

COC(=O)C1=C(C)NC(C)=C(C(=O)OC)C1c1ccccc1[N+](=O)[O-] [nifedipine]
Sox-2 expression in response to nifedipine (24 hours): 28 transcripts/10^6 transcripts of 18S RNA | Musashi expression in response to nifedipine (24 hours of stimulation): 0.093 transcripts/10^6 transcripts of 18S RNA | increase in Musashi expression (24 hours vs unstimulated): ~17 fold | increase in Sox-2 expression (24 hours vs unstimulated): ~7 fold
